{
  "source": "ChEMBL document CHEMBL3044966",
  "about": "“Photosynthesis limitations of grapevine after treatment with the fungicide fludioxonil” (J Agric Food Chem, 2008)",
  "key": {"[1]": {"test_system": "Vitis vinifera", "test": "Effect on net photosynthetic rate in Vitis vinifera cv. Pinot noir at 1.2 to 30 mM measured 2 to 4 days post compound application", "format": "ADME, organism-based", "conditions": "in vivo, 30000 µM"}, "[2]": {"test": "Inhibition of photosynthesis in Vitis vinifera cv. Pinot noir assessed as reduction in Hill reaction activity 6 mM measured 7 days post compound application relative to untreated control", "format": "organism-based", "conditions": "in vivo"}, "[3]": {"test_system": "Vitis vinifera", "test": "Inhibition of photosynthesis in Vitis vinifera cv. Pinot noir assessed as intercellular CO2 concentration-saturated net CO2 assimilation rate at 1.2 mM measured 7 days post compound application (reference value: 11.3 +/- 0.8 umol/m2/s)", "format": "organism-based", "conditions": "in vivo, 168 h, 1200 µM"}, "[4]": {"test_system": "Vitis vinifera", "test": "Inhibition of photosynthesis in Vitis vinifera cv. Pinot noir assessed as mitochondrial respiration in the light at 1.2 mM measured 7 days post compound application (reference value: 3.2 +/- 0.5 umol/m2/s)", "format": "organism-based", "conditions": "in vivo, 168 h, 1200 µM"}, "[5]": {"test_system": "Vitis vinifera", "test": "Inhibition of photosynthesis in Vitis vinifera cv. Pinot noir assessed as intercellular CO2 concentration-saturated net CO2 assimilation rate at 6 mM measured 7 days post compound application (reference value: 11.3 +/- 0.8 umol/m2/s)", "format": "organism-based", "conditions": "in vivo, 168 h, 6000 µM"}, "[6]": {"test": "Inhibition of photosynthesis in Vitis vinifera cv. Pinot noir assessed as reduction in net photosynthetic rate at 30 mM measured 7 days post compound application", "format": "organism-based", "conditions": "in vivo"}, "[7]": {"test_system": "Vitis vinifera", "test": "Inhibition of photosynthesis in Vitis vinifera cv. Pinot noir assessed as apparent quantum yield of CO2 fixation at 30 mM measured 7 days post compound application (reference value: 0.07 +/- 0.01 no unit) umol/m2/s)", "format": "organism-based", "conditions": "in vivo, 168 h, 30000 µM"}, "[8]": {"test": "Inhibition of photosynthesis in Vitis vinifera cv. Pinot noir assessed as change in light compensation point at 6 mM measured 7 days post compound application", "format": "organism-based", "conditions": "in vivo"}, "[9]": {"test_system": "Vitis vinifera", "test": "Inhibition of photosynthesis in Vitis vinifera cv. Pinot noir assessed as PPFD-saturated net CO2 assimilation rate at 30 mM measured 7 days post compound application (reference value: 8.9 +/- 1.5 umol/m2/s)", "format": "organism-based", "conditions": "in vivo, 168 h, 30000 µM"}, "[10]": {"test_system": "Vitis vinifera", "test": "Effect on photochemical quenching in Vitis vinifera cv. Pinot noir at 1.2 to 30 mM measured 7 days post compound application", "format": "ADME, organism-based", "conditions": "in vivo, 168 h, 30000 µM"}, "[11]": {"test_system": "Vitis vinifera", "test": "Inhibition of photosynthesis in Vitis vinifera cv. Pinot noir assessed as ratio of apparent quantum yield of photo system 2 to apparent quantum yield yield of CO2 fixation at 30 mM measured 7 days post compound application (reference value: 10 +/- 1.7 no unit)", "format": "organism-based", "conditions": "in vivo, 168 h, 30000 µM"}, "[12]": {"test_system": "Vitis vinifera", "test": "Inhibition of photosynthesis in Vitis vinifera cv. Pinot noir assessed as apparent quantum yield of CO2 fixation at 1.2 mM measured 7 days post compound application (reference value: 0.07 +/- 0.01 no unit) umol/m2/s)", "format": "organism-based", "conditions": "in vivo, 168 h, 1200 µM"}, "[13]": {"test_system": "Vitis vinifera", "test": "Inhibition of photosynthesis in Vitis vinifera cv. Pinot noir assessed as light compensation point at 6 mM measured 7 days post compound application (reference value: 22.6 +/- 3.1 umol/mol)", "format": "organism-based", "conditions": "in vivo, 168 h, 6000 µM"}, "[14]": {"test_system": "Vitis vinifera", "test": "Inhibition of photosynthesis in Vitis vinifera cv. Pinot noir assessed as intercellular CO2 concentration-saturated net CO2 assimilation rate at 30 mM measured 7 days post compound application (reference value: 11.3 +/- 0.8 umol/m2/s)", "format": "organism-based", "conditions": "in vivo, 168 h, 30000 µM"}, "[15]": {"test_system": "Vitis vinifera", "test": "Inhibition of photosynthesis in Vitis vinifera cv. Pinot noir assessed as in vivo maximum rate of rubisco carboxylation at 1.2 mM measured 7 days post compound application (reference value: 42.8 +/- 3.2 umol/m2/s)", "format": "organism-based", "conditions": "168 h, 1200 µM"}, "[16]": {"test_system": "Vitis vinifera", "test": "Inhibition of photosynthesis in Vitis vinifera cv. Pinot noir assessed as increase in mitochondrial respiration in the light at 30 mM measured 7 days post compound application relative to untreated control", "format": "organism-based", "conditions": "in vivo, 168 h, 30000 µM"}, "[17]": {"test_system": "Vitis vinifera", "test": "Inhibition of photosynthesis in Vitis vinifera cv. Pinot noir assessed as PPFD-saturated net CO2 assimilation rate at 6 mM measured 7 days post compound application (reference value: 8.9 +/- 1.5 umol/m2/s)", "format": "organism-based", "conditions": "in vivo, 168 h, 6000 µM"}, "[18]": {"test_system": "Vitis vinifera", "test": "Inhibition of photosynthesis in Vitis vinifera cv. Pinot noir assessed as mitochondrial respiration in the light at 30 mM measured 7 days post compound application (reference value: 3.2 +/- 0.5 umol/m2/s)", "format": "organism-based", "conditions": "in vivo, 168 h, 30000 µM"}, "[19]": {"test_system": "photosystem 2", "test": "Inhibition of photosynthesis in Vitis vinifera cv. Pinot noir assessed as reduction in relative quantum yield of photo system 2 at 1.2 mM measured 7 days post compound application relative to untreated control", "format": "organism-based", "conditions": "in vivo"}, "[20]": {"test_system": "Vitis vinifera", "test": "Inhibition of photosynthesis in Vitis vinifera cv. Pinot noir assessed as CO2 compensation point at 30 mM measured 7 days post compound application (reference value: 74.8 +/- 12.7 umol/mol)", "format": "organism-based", "conditions": "in vivo, 168 h, 30000 µM"}, "[21]": {"test_system": "Vitis vinifera", "test": "Inhibition of photosynthesis in Vitis vinifera cv. Pinot noir assessed as dark respiration at 6 mM measured 7 days post compound application (reference value: 1.6 +/- 0.0 umol/m2/s)", "format": "organism-based", "conditions": "in vivo, 168 h, 6000 µM"}, "[22]": {"test": "Inhibition of photosynthesis in Vitis vinifera cv. Pinot noir assessed as reduction in apparent quantum yield of CO2 fixation at 1.2 to 30 mM measured 7 days post compound application", "format": "organism-based", "conditions": "in vivo"}, "[23]": {"test_system": "Vitis vinifera", "test": "Inhibition of photosynthesis in Vitis vinifera cv. Pinot noir assessed as mitochondrial respiration in the light at 6 mM measured 7 days post compound application (reference value: 3.2 +/- 0.5 umol/m2/s)", "format": "organism-based", "conditions": "in vivo, 168 h, 6000 µM"}, "[24]": {"test_system": "photosystem 2", "test": "Inhibition of photosynthesis in Vitis vinifera cv. Pinot noir assessed as reduction in relative quantum yield of photo system 2 at 30 mM measured 7 days post compound application relative to untreated control", "format": "organism-based", "conditions": "in vivo"}, "[25]": {"test_system": "Vitis vinifera", "test": "Inhibition of photosynthesis in Vitis vinifera cv. Pinot noir assessed as reduction in net photosynthetic rate at 30 mM measured 1 day post compound application", "format": "organism-based", "conditions": "in vivo, 24 h, 30000 µM"}, "[26]": {"test_system": "Vitis vinifera", "test": "Effect on stomatal conductance in Vitis vinifera cv. Pinot noir at 1.2 to 30 mM measured 1 day post compound application", "format": "ADME, organism-based", "conditions": "in vivo, 24 h, 30000 µM"}, "[27]": {"test_system": "photosystem 2", "test": "Inhibition of photosynthesis in Vitis vinifera cv. Pinot noir assessed as reduction in relative quantum yield of photo system 2 at 6 mM measured 7 days post compound application relative to untreated control", "format": "organism-based", "conditions": "in vivo"}},
  "data": [
    {"compound": "N#Cc1c[nH]cc1-c1cccc2c1OC(F)(F)O2", "note": "[FLUDIOXONIL]", "values": [
      {"measurement": "Activity", "setting": "[1]", "result": "Non-toxic"},
      {"measurement": "inhibition at 168 h, 6000 µM", "setting": "[2]", "result": 36, "unit": "%"},
      {"measurement": "Activity", "setting": "[3]", "result": 11.3, "unit": "micromol/m2/s"},
      {"measurement": "Activity", "setting": "[4]", "result": 3.2, "unit": "micromol/m2/s"},
      {"measurement": "Activity", "setting": "[5]", "result": 11.5, "unit": "micromol/m2/s"},
      {"measurement": "inhibition at 168 h, 30000 µM", "setting": "[6]", "result": 38, "unit": "%"},
      {"measurement": "Activity", "setting": "[7]", "result": 0.04},
      {"measurement": "inhibition at 168 h, 6000 µM", "setting": "[8]", "result": 20, "unit": "%"},
      {"measurement": "Activity", "setting": "[9]", "result": 9.4, "unit": "micromol/m2/s"},
      {"measurement": "Activity", "setting": "[10]", "result": "Non-toxic"},
      {"measurement": "Ratio", "setting": "[11]", "result": 19.2},
      {"measurement": "Activity", "setting": "[12]", "result": 0.01},
      {"measurement": "Activity", "setting": "[13]", "result": 27.7, "unit": "umol/mol"},
      {"measurement": "Activity", "setting": "[14]", "result": 12.2, "unit": "micromol/m2/s"},
      {"measurement": "Activity", "setting": "[15]", "result": 38, "unit": "micromol/m2/s"},
      {"measurement": "fold change (FC)", "setting": "[16]", "result": 3.5},
      {"measurement": "Activity", "setting": "[17]", "result": 7.6, "unit": "micromol/m2/s"},
      {"measurement": "Activity", "setting": "[18]", "result": 12.6, "unit": "micromol/m2/s"},
      {"measurement": "inhibition at 168 h, 1200 µM", "setting": "[19]", "result": 10, "unit": "%"},
      {"measurement": "Activity", "setting": "[20]", "result": 267, "unit": "umol/mol"},
      {"measurement": "Activity", "setting": "[21]", "result": 1.2, "unit": "micromol/m2/s"},
      {"measurement": "inhibition at 168 h, up to 30000 µM", "setting": "[22]", "result": 30, "unit": "%"},
      {"measurement": "Activity", "setting": "[23]", "result": 3.6, "unit": "micromol/m2/s"},
      {"measurement": "inhibition at 168 h, 30000 µM", "setting": "[24]", "result": 10, "unit": "%"},
      {"measurement": "Activity", "setting": "[25]", "result": "Toxic"},
      {"measurement": "Activity", "setting": "[26]", "result": "Non-toxic"},
      {"measurement": "inhibition at 168 h, 6000 µM", "setting": "[27]", "result": 7, "unit": "%"}
    ]}
  ]
}
